Laboratory results published in patent US20250215012A1, “IKZF2 DEGRADERS AND USES THEREOF” (REGENTS OF THE UNIVERSITY OF MICHIGAN, priority 2022, published 2025).

Target: IKZF2 (Homo sapiens (Human), UniProt Q96SW2+Q9UKS7)
Assay: IKZF2 HiBiT Assay (Jurkat-IKZF2-HiBiT cell line)
Type: cell-based
Conditions: Jurkat-IKZF2-HiBiT cells, 24 hours; for DC50: read-out: HiBit assay degradation analysis DC50; for Dmax: read-out: HiBit assay degradation analysis Dmax
How it was run: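 Jurkat cells carrying HiBiT-tagged IKZF2 were exposed to serially diluted compound for 24 h at 37 °C. Remaining IKZF2 was measured by Nano-Glo HiBiT lytic luminescence after 10-20 min at room temperature. Signal was normalized to DMSO, and IC50 came from a four-parameter variable-slope fit.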

IKZF2, sequence (Q9UKS7 whole entry): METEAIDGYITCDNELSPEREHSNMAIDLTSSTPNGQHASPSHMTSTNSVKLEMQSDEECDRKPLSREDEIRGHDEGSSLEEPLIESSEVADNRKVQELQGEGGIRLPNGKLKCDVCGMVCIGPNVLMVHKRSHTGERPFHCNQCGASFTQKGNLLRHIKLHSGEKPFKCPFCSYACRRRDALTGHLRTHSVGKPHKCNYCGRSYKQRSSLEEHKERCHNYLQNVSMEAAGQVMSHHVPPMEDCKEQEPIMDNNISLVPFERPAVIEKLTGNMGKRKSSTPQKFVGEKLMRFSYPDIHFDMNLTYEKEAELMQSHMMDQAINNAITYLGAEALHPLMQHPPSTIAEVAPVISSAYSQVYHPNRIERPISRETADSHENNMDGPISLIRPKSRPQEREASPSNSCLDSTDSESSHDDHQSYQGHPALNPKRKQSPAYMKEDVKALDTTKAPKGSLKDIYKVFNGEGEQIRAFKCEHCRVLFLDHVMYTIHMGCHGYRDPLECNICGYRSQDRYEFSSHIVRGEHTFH
IKZF2, sequence (Q96SW2 whole entry): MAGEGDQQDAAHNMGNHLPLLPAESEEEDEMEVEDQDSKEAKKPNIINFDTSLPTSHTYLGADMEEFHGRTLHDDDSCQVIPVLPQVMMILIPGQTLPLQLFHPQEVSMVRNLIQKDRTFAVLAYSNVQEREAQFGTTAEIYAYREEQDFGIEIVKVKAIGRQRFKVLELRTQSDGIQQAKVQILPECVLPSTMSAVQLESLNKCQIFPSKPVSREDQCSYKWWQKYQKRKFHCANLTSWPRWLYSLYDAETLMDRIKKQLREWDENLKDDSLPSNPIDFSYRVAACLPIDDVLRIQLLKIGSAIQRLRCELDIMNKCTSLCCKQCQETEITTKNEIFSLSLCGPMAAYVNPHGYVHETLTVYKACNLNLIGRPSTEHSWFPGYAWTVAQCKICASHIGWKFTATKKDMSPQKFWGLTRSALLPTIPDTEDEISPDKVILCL
IKZF2, sequence (Q16531 whole entry partner): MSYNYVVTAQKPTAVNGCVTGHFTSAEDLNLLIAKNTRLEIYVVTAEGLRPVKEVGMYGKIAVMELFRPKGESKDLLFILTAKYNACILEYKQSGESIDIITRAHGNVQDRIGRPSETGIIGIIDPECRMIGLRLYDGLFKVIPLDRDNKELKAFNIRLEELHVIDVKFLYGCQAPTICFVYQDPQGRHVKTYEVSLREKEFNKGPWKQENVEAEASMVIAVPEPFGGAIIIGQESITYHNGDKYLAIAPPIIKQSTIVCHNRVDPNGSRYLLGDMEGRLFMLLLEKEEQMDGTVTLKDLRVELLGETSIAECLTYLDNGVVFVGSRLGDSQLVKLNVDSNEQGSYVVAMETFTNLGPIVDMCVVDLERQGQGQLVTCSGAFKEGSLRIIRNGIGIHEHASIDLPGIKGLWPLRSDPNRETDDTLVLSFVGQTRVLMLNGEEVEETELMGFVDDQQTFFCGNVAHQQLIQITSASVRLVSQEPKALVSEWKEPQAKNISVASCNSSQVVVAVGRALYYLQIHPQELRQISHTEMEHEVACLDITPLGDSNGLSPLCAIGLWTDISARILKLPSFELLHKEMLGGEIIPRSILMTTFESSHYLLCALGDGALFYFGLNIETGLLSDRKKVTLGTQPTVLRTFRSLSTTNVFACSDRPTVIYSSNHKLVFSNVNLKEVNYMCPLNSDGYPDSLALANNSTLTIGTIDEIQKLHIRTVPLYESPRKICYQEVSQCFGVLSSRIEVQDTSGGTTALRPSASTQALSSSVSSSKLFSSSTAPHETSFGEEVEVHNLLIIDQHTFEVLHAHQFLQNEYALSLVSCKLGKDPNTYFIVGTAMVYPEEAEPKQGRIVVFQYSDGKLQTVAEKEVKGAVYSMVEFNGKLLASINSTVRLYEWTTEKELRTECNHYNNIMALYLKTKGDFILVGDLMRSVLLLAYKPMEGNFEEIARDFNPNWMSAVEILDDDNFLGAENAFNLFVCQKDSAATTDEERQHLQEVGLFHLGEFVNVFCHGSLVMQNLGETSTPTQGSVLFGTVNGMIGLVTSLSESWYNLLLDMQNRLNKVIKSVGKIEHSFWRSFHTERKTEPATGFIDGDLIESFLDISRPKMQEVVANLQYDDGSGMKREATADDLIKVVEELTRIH

SMILES	DC50 [µM]	Dmax [%]
O=C1CCC(N2Cc3c(ccc4c3OCC43CCN(Cc4ccc5c(c4)OC(F)(F)O5)CC3)C2=O)C(=O)N1 (stereo not shown) [Compound A193, 3-(1′-((2,2-difluorobenzo[d][1,3]dioxol-5-yl)methyl)-6-oxo-6,8-dihydro-2H,7H-spiro[furo[2,3-e]isoindole-3,4′-piperidin]-7-yl)piperidine-2,6-dione]	> 0.5	< 40
O=C1CCC(N2Cc3c(ccc4c3OCC43CCN(Cc4ccc(C(F)(F)F)cc4)CC3)C2=O)C(=O)N1 (stereo not shown) [Compound A194, 3-(6-oxo-1′-(4-(trifluoromethyl)benzyl)-6,8-dihydro-2H,7H-spiro[furo[2,3-e]isoindole-3,4′-piperidin]-7-yl)piperidine-2,6-dione]	> 0.5	< 40
N#Cc1ccc(CN2CCC3(CC2)COc2c3ccc3c2CN(C2CCC(=O)NC2=O)C3=O)cc1 (stereo not shown) [Compound A195, 4-((7-(2,6-dioxopiperidin-3-yl)-6-oxo-7,8-dihydro-2H,6H-spiro[furo[2,3-e]isoindole-3,4′-piperidin]-1′-yl)methyl)benzonitrile]	> 0.5	< 40
N#CCc1ccc(CN2CCC3(CC2)COc2c3ccc3c2CN(C2CCC(=O)NC2=O)C3=O)cc1 (stereo not shown) [Compound A196, 2-(4-((7-(2,6-dioxopiperidin-3-yl)-6-oxo-7,8-dihydro-2H,6H-spiro[furo[2,3-e]isoindole-3,4′-piperidin]-1′-yl)methyl)phenyl)acetonitrile]	0.05 to 0.2	60 to 80
O=C1CCC(N2Cc3c(ccc4c3OCC43CCN(Cc4ccc(OC(F)F)cc4)CC3)C2=O)C(=O)N1 (stereo not shown) [Compound A197, 3-(1′-(4-(difluoromethoxy)benzyl)-6-oxo-6,8-dihydro-2H,7H-spiro[furo[2,3-e]isoindole-3,4′-piperidin]-7-yl)piperidine-2,6-dione]	> 0.5	< 40
O=C1CCC(N2Cc3c(ccc4c3OCC43CCN(Cc4ccc5[nH]ncc5c4)CC3)C2=O)C(=O)N1 (stereo not shown) [Compound A198, 3-(1′-((1H-indazol-5-yl)methyl)-6-oxo-6,8-dihydro-2H,7H-spiro[furo[2,3-e]isoindole-3,4′-piperidin]-7-yl)piperidine-2,6-dione]	0.2 to 0.5	60 to 80
O=C1CCC(N2Cc3c(ccc4c3OCC43CCN(Cc4cccc5c4OCCO5)CC3)C2=O)C(=O)N1 (stereo not shown) [Compound A199, 3-(1′-((2,3-dihydrobenzo[b][1,4]dioxin-5-yl)methyl)-6-oxo-6,8-dihydro-2H,7H-spiro[furo[2,3-e]isoindole-3,4′-piperidin]-7-yl)piperidine-2,6-dione]	> 0.5	60 to 80
CC(C)(O)c1ccc(CN2CCC3(CC2)COc2c3ccc3c2CN(C2CCC(=O)NC2=O)C3=O)cc1 (stereo not shown) [Compound A200, 3-(1′-(4-(2-hydroxypropan-2-yl)benzyl)-6-oxo-6,8-dihydro-2H,7H-spiro[furo[2,3-e]isoindole-3,4′-piperidin]-7-yl)piperidine-2,6-dione]	> 0.5	< 40
CN(C)C(=O)c1ccc(CN2CCC3(CC2)COc2c3ccc3c2CN(C2CCC(=O)NC2=O)C3=O)cc1 (stereo not shown) [Compound A201, 4-((7-(2,6-dioxopiperidin-3-yl)-6-oxo-7,8-dihydro-2H,6H-spiro[furo[2,3-e]isoindole-3,4′-piperidin]-1′-yl)methyl)-N,N-dimethylbenzamide]	> 0.5	< 40
CCOc1ccc(CN2CCC3(CC2)COc2c3ccc3c2CN(C2CCC(=O)NC2=O)C3=O)cn1 (stereo not shown) [Compound A202, 3-(1′-((6-ethoxypyridin-3-yl)methyl)-6-oxo-6,8-dihydro-2H,7H-spiro[furo[2,3-e]isoindole-3,4′-piperidin]-7-yl)piperidine-2,6-dione]	> 0.5	< 40
CC(C)c1cccc(CN2CCC3(CC2)COc2c3ccc3c2CN(C2CCC(=O)NC2=O)C3=O)c1 (stereo not shown) [Compound A203, 3-(1′-(3-isopropylbenzyl)-6-oxo-6,8-dihydro-2H,7H-spiro[furo[2,3-e]isoindole-3,4′-piperidin]-7-yl)piperidine-2,6-dione]	> 0.5	< 40
O=C1CCC(N2Cc3c(ccc4c3OCC43CCN(Cc4cccc(C5CC5)c4)CC3)C2=O)C(=O)N1 (stereo not shown) [Compound A204, 3-(1′-(3-cyclopropylbenzyl)-6-oxo-6,8-dihydro-2H,7H-spiro[furo[2,3-e]isoindole-3,4′-piperidin]-7-yl)piperidine-2,6-dione]	> 0.5	40 to 60
O=C1CCC(N2Cc3c(ccc4c3OCC43CCN(Cc4ccc(C5CC5)cc4)CC3)C2=O)C(=O)N1 (stereo not shown) [Compound A205, 3-(1′-(4-cyclopropylbenzyl)-6-oxo-6,8-dihydro-2H,7H-spiro[furo[2,3-e]isoindole-3,4′-piperidin]-7-yl)piperidine-2,6-dione]	0.2 to 0.5	40 to 60
O=C1CCC(N2Cc3c(ccc4c3OCC43CCN(Cc4ncccn4)CC3)C2=O)C(=O)N1 (stereo not shown) [Compound A206, 3-(6-oxo-1′-(pyrimidin-2-ylmethyl)-6,8-dihydro-2H,7H-spiro[furo[2,3-e]isoindole-3,4′-piperidin]-7-yl)piperidine-2,6-dione]	> 0.5	< 40
O=C1CCC(N2Cc3c(ccc4c3OCC43CCN(Cc4cccc5c4CCC5)CC3)C2=O)C(=O)N1 (stereo not shown) [Compound A207, 3-(1′-((2,3-dihydro-1H-inden-4-yl)methyl)-6-oxo-6,8-dihydro-2H,7H-spiro[furo[2,3-e]isoindole-3,4′-piperidin]-7-yl)piperidine-2,6-dione]	> 0.5	< 40
O=C1CCC(N2Cc3c(ccc4c3OCC43CCN(Cc4cccc5c4CCCC5)CC3)C2=O)C(=O)N1 (stereo not shown) [Compound A208, 3-(6-oxo-1′-((5,6,7,8-tetrahydronaphthalen-1-yl)methyl)-6,8-dihydro-2H,7H-spiro[furo[2,3-e]isoindole-3,4′-piperidin]-7-yl)piperidine-2,6-dione]	< 0.05	60 to 80
O=C1CCC(N2Cc3c(ccc4c3OCC43CCN(Cc4cnn(Cc5ccccc5)c4)CC3)C2=O)C(=O)N1 (stereo not shown) [Compound A209, 3-(1′-((1-benzyl-1H-pyrazol-4-yl)methyl)-6-oxo-6,8-dihydro-2H,7H-spiro[furo[2,3-e]isoindole-3,4′-piperidin]-7-yl)piperidine-2,6-dione]	< 0.05	60 to 80
CN(C)S(=O)(=O)c1ccc(CN2CCC3(CC2)COc2c3ccc3c2CN(C2CCC(=O)NC2=O)C3=O)cc1 (stereo not shown) [Compound A210, 4-((7-(2,6-dioxopiperidin-3-yl)-6-oxo-7,8-dihydro-2H,6H-spiro[furo[2,3-e]isoindole-3,4′-piperidin]-1′-yl)methyl)-N,N-dimethylbenzenesulfonamide]	> 0.5	< 40
COc1ccc(CN2CCC3(CC2)COc2c3ccc3c2CN(C2CCC(=O)NC2=O)C3=O)cc1 (stereo not shown) [Compound A211, 3-(1′-(4-methoxybenzyl)-6-oxo-6,8-dihydro-2H,7H-spiro[furo[2,3-e]isoindole-3,4′-piperidin]-7-yl)piperidine-2,6-dione]	> 0.5	< 40
COc1cccc(CN2CCC3(CC2)COc2c3ccc3c2CN(C2CCC(=O)NC2=O)C3=O)c1 (stereo not shown) [Compound A212, 3-(1′-(3-methoxybenzyl)-6-oxo-6,8-dihydro-2H,7H-spiro[furo[2,3-e]isoindole-3,4′-piperidin]-7-yl)piperidine-2,6-dione]	> 0.5	40 to 60
